What was measured:
AM1 receptor = target: T1, AM1 receptor (Homo sapiens, UniProt O60895+Q16602); test: TR-FRET cAMP accumulation, AM1 receptor cross-screen; assay type: cell-based; details: Table 2; read-out: pIC50 AM1 (converted)
T1 construct: expressed in transfected cells; host or cells: GPCR/RAMP-overexpressing cells; the AM1 line itself is not described
Procedure: (§1) The ability of the compounds to inhibit cAMP production induced by an EC50 concentration of the maximum agonist activation (information previously published[34]) in GPCR/RAMP-overexpressing cells (i.e., AM2, CGRP cells) was evaluated using cAMP accumulation assays. Each compound was tested at 8 full-log concentrations (10^–11–10^–5 M) including a negative control (blank). The total cAMP was measured using the TR-FRET LANCE cAMP detection kit (PerkinElmer, AD0264), as described previously.[34] Briefly, frozen cells ([…]) were thawed and prepared in warm stimulation buffer (1× HBSS, 5 mM N-(2-hydroxyethyl)piperazine-N′-ethanesulfonic acid (HEPES), 0.5 mM IBMX, and 0.1% bovine serum albumin (BSA)). Alexa Fluor conjugated anti-cAMP (1:100 concentration) was then added to the cell suspension, and cells were plated (2500 cells, 6 μL) in a 384-well white opaque microtiter plate (OptiPlates, PerkinElmer, 6007299). […] Subsequently, a 12 μL detection mix (Europium-Chelate streptavidin/biotinylated cAMP) was added to stop the reaction and induce cell lysis. TR-FRET was detected after an hour of incubation by an EnSight multimode Plate reader (PerkinElmer) at 320/340 nm excitation and 615/665 nm emission. Data were normalized to agonist only and blank (stimulation buffer only) wells as 0 and 100% cAMP inhibition, respectively.
The final DMSO concentration was below 0.5%, and this was kept consistent in all of the wells, including agonist alone and blank. The same methodology including the number of cells was used for all cell lines. […] No further constraints in any parameters of the curves were used.

CGRP receptor = CGRP receptor (Homo sapiens, UniProt O60894+Q16602); test: TR-FRET cAMP accumulation, inhibition of agonist-induced cAMP in CGRP receptor-overexpressing cells; assay type: cell-based; details: supplementary CSV; read-out: pIC50 CGRPR (converted)
Sequence of CGRP receptor (Q16602 23-461): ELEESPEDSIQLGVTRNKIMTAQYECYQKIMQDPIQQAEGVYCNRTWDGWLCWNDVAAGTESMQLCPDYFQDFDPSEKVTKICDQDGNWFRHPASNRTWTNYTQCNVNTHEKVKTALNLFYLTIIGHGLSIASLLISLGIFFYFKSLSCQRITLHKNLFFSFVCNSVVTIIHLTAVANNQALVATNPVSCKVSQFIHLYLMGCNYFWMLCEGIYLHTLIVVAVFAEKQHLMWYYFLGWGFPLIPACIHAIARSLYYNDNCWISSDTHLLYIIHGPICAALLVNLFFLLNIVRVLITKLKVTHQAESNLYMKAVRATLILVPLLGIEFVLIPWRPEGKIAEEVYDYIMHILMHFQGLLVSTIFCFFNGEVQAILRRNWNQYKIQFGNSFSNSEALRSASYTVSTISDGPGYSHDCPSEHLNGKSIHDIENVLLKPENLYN
Sequence of CGRP receptor (O60894 27-148): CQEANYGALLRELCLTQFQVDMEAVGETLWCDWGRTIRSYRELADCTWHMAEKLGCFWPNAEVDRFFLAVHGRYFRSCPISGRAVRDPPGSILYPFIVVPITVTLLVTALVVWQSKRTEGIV
Procedure: as §1, with “respectively. […]” for “respectively.”

AM2 receptor = AM2 receptor (Homo sapiens, UniProt O60896+Q16602); test: TR-FRET cAMP accumulation, inhibition of agonist-induced cAMP in AM2 receptor-overexpressing cells; assay type: cell-based; details: supplementary CSV; read-out: pIC50 AM2R (converted)
Sequence of AM2 receptor (Q16602 23-461): as the sequence (Q16602 23-461) above
Sequence of AM2 receptor (O60896 24-148): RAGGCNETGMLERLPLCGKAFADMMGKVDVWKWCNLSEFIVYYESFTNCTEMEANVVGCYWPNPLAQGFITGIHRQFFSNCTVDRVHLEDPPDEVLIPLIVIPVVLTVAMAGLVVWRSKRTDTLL
Procedure: as §1, with “respectively. […]” for “respectively.”

MDA-MB-231 cells = test: Real-Time-Glo MT viability assay; assay type: cell-based, human; details: 10 μM, daily treatment, after 3 days, versus vehicle-treated controls
Procedure: Cell viability in human breast cancer cells (MDA-MB-231) was quantified using Real-Time-Glo MT Cell Viability Assay (Promega, G9712) as previously described.[34] Cells (2000 cells) were seeded into 96-well white clear-bottom plates (Corning, 3903) in full serum media overnight before washing and changing to suboptimal media (RPMI + 5% FBS + 1% P/S) containing Real-Time-Glo reagents according to the Promega protocol. A baseline luminescence read (prior to treatment) was taken using an EnSight Multimode Plate Reader (PerkinElmer) after an hour of incubation at 37 °C. Cells were then treated with compounds or vehicle control (PBS + 0.05% DMSO) daily. Results were normalized to vehicle-treated controls as 100% viable (Graphpad Prism 7 and 8).

MDA-MB-231 tumor = test: Subcutaneous MDA-MB-231 xenograft in BALB/c nude mice; assay type: in vivo
Procedure: The study was performed using 6–7 week old BALB/c nude female mice, with a weight range of 15–20 g. Animals were provided by Envigo Corporation (Cambridgeshire, U.K.) or Charles River Laboratories (Massachusetts) depending on availability. Each experiment started with 10 mice (experimental units) in each experimental/control group. Subsequent analysis (tumor growth and histology) was only performed in animals where tumors had established and were palpable within 3 days of implantation. This was in accordance with the power calculation performed to ensure robust statistical analysis by the University of Sheffield Statistical Service. The animals were housed in individually ventilated cages (with the appropriate bedding and flooring conditions) in environmentally controlled conditions with a 12 h light/dark cycles at ∼26 °C. Mice had access to an adequate amount of water and a 2018 Teklad Global 18% Protein Rodent Diet containing 1.01% calcium (Harlan Laboratories, U.K.). The day-to-day care of the animals was carried out by the technicians in the Biological Services (The University of Sheffield, U.K.). All scientific procedures on animals were carried under the U.K. Home Office Project Licenses (40/3499) and Procedure Individual Licenses.
Compounds were dissolved in DMSO (Sigma-Aldrich, D4540) and sonicated at 37 °C for 10 min. The appropriate volume of solvent (Kolliphor HS15 (1 part, grams), Kollisolv PEG E 400 (3 parts, mL), and PBS (6 parts, mL)) was then added to yield a 6% DMSO/94% solvent solution. These working stocks (8 mg/mL) were further sonicated at 37 °C for 10 min before storing at −20 °C. To make treatment aliquots, equal amounts of the working stock (or vehicle control) and solvent were mixed and sonicated at 37 °C for 10 min (4 mg/mL, equivalent to 20 mg/kg, 3% DMSO/97% solvent). Vehicle control and compounds were sonicated at 37 °C for 10 min prior to ip injections (200 μL per mouse).
Cells were prepared according to standard cell culture techniques. Cell pellets were resuspended in 50% PBS/50% Matrigel (Corning, 354234). Matrigel/PBS cell suspension, needles (25G), and syringes (1 mL) were kept on ice before and during tumor inoculation into mice. Cell suspension (100 μL, 5 × 10^6 cells) was injected subcutaneously into the left flank of 6–7 weeks old female immunodeficient nude athymic mice (BALB/c nude). Once the tumors became palpable (around 100 mm^3), mice were randomized into treatment groups. Mice were treated daily at the same time of the day with an ip injection of 20 mg/kg of compound or vehicle control (200 μL per mouse) until humane end point. […] Tumor size and mouse weights were measured twice a week. At the end of each study, the animals were euthanized following the appropriate procedures listed in the ASPA Act 1986. Vital organs and tumors were stored in 10% neutral-buffered formalin for further histological analysis. The primary experimental outcome was tumor volume. The percentage tumor volume was calculated by normalizing measured tumor volumes to the initial tumor volume prior to the start of treatment on day 5. Simple linear regression was done to compare the line of best fit between the growth curves. Blinding was not used for the in vivo studies.

CGRP = system: CGRP; parameters: method as in PMID 24900170, PMID 16161996; details: cited from earlier work

T1 sequence (Q16602 23-461): as the sequence (Q16602 23-461) above
T1 sequence (O60895 43-175): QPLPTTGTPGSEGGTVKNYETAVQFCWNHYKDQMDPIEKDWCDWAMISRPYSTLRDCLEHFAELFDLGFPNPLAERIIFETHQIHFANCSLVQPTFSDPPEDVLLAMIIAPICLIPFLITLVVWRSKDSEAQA

CN1CCCC(CN(CC(=O)Nc2ccc3c(c2)CC2(C3)C(=O)Nc3ncccc32)C(=O)C(C)(C)C)C1 (racemic) [(±)-6, N-((1-Methylpiperidin-3-yl)methyl)-N-(2-oxo-2-((2′-oxo-1,1′,2′,3-tetrahydrospiro[indene-2,3′-pyrrolo[2,3-b]pyridin]-5-yl)amino)ethyl)pivalamide]
IC50 (AM1 receptor): > 10 µM

CC(N)c1ccccc1CN(CC(=O)Nc1ccc2c(c1)CC1(C2)C(=O)Nc2ncccc21)C(=O)C(C)(C)C (racemic) [(±)-29, N-(2-(1-Aminoethyl)benzyl)-N-(2-oxo-2-((2′-oxo-1,1′,2′,3-tetrahydrospiro[indene-2,3′-pyrrolo[2,3-b]pyridin]-5-yl)amino)ethyl)pivalamide]
IC50 (AM1 receptor): > 10 µM

CC(C)(C)C(=O)N(CC(=O)Nc1ccc2c(c1)CC1(C2)C(=O)Nc2ncccc21)Cc1ccccn1 (stereo not shown) [Compound 5, N-(2-Oxo-2-((2′-oxo-1,1′,2′,3-tetrahydrospiro[indene-2,3′-pyrrolo[2,3-b]pyridin]-5-yl)amino)ethyl)-N-(pyridin-2-ylmethyl)pivalamide]
IC50 (AM1 receptor): 50.1 µM

CC(C)(C)C(=O)N(CC(=O)Nc1ccc2c(c1)CC1(C2)C(=O)Nc2ncccc21)Cc1nccs1 (stereo not shown) [Compound 8, N-(2-Oxo-2-((2′-oxo-1,1′,2′,3-tetrahydrospiro[indene-2,3′-pyrrolo[2,3-b]pyridin]-5-yl)amino)ethyl)-N-(thiazol-2-ylmethyl)pivalamide]
IC50 (AM1 receptor): 25.1 µM

CC(C)(C)C(=O)N(CC(=O)Nc1ccc2c(c1)CC1(C2)C(=O)Nc2ncccc21)Cc1ccccc1CN (stereo not shown) [Compound 12, N-(2-(Aminomethyl)benzyl)-N-(2-oxo-2-((2′-oxo-1,1′,2′,3-tetrahydrospiro[indene-2,3′-pyrrolo[2,3-b]pyridin]-5-yl)amino)ethyl)pivalamide]
IC50 (AM1 receptor): 7.94 µM

CC(C)(C)C(=O)N(CC(=O)Nc1ccc2c(c1)CC1(C2)C(=O)Nc2ncccc21)Cc1ccccc1CO (stereo not shown) [Compound 13, N-(2-(Hydroxymethyl)benzyl)-N-(2-oxo-2-((2′-oxo-1,1′,2′,3-tetrahydrospiro[indene-2,3′-pyrrolo[2,3-b]pyridin]-5-yl)amino)ethyl)pivalamide]
IC50 (AM1 receptor): 1.26 µM

CC(C)(C)C(=O)N(CC(=O)Nc1ccc2c(c1)CC1(C2)C(=O)Nc2ncccc21)Cc1ccccc1C(N)=O (stereo not shown) [Compound 15, 2-((N-(2-Oxo-2-((2′-oxo-1,1′,2′,3-tetrahydrospiro[indene-2,3′-pyrrolo[2,3-b]pyridin]-5-yl)amino)ethyl)pivalamido)methyl)benzamide]
IC50 (AM1 receptor): 6.31 µM

CC(C)(C)C(=O)N(CC(=O)Nc1ccc2c(c1)CC1(C2)C(=O)Nc2ncccc21)Cc1ccccc1CNCc1ncc[nH]1 (stereo not shown) [Compound 23, N-(2-((((1H-Imidazol-2-yl)methyl)amino)methyl)benzyl)-N-(2-oxo-2-((2′-oxo-1,1′,2′,3-tetrahydrospiro[indene-2,3′-pyrrolo[2,3-b]pyridine]-5-yl)amino)ethyl)pivalamide]
IC50 (CGRP receptor): 0.00398 µM
IC50 (AM2 receptor): 0.251 µM

CNCc1ccccc1CN(CC(=O)Nc1ccc2c(c1)CC1(C2)C(=O)Nc2ncccc21)C(=O)C(C)(C)C (stereo not shown) [Compound 25]
decrease of MDA-MB-231 viability (MDA-MB-231 cells): 55%
IC50 (AM1 receptor): 2 µM
tumor growth rates (MDA-MB-231 tumor; 20 mg/kg ip daily, simple linear regression, p < 0.001): significantly reduced
adverse effects (MDA-MB-231 tumor; 20 mg/kg ip once daily): No adverse effects were observed
body weight compared with vehicle-treated mice (MDA-MB-231 tumor; 20 mg/kg ip once daily): did not differ significantly
tolerability (MDA-MB-231 tumor; 20 mg/kg ip once daily): well tolerated
decrease of breast cancer xenograft tumor growth (MDA-MB-231 tumor; 20 mg/kg ip once daily, 4 weeks after treatment, versus vehicle): 47%

CC(C)(C)C(=O)N(CC(=O)Nc1ccc2c(c1)CC1(C2)C(=O)Nc2ncccc21)Cc1ccccc1CNC1CC1 (stereo not shown) [Compound 26, N-(2-((Cyclopropylamino)methyl)benzyl)-N-(2-oxo-2-((2′-oxo-1,1′,2′,3-tetrahydrospiro[indene-2,3′-pyrrolo[2,3-b]pyridin]-5-yl)amino)ethyl)pivalamide]
IC50 (AM1 receptor): 3.16 µM

CC(C)(C)C(=O)N(CC(=O)Nc1ccc2c(c1)CC1(C2)C(=O)Nc2ncccc21)Cc1ccccc1CN1CCC1 (stereo not shown) [Compound 27, N-(2-(Azetidin-1-ylmethyl)benzyl)-N-(2-oxo-2-((2′-oxo-1,1′,2′,3-tetrahydrospiro[indene-2,3′-pyrrolo[2,3-b]pyridine]-5-yl)amino)ethyl)pivalamide]
IC50 (AM1 receptor): 2 µM

O=C(CN1C(=O)C2(CCCC2)NC[C@H]1c1cc(F)cc(F)c1)Nc1ccc2c(c1)C[C@@]1(C2)C(=O)Nc2ncccc21 [MK-3207]
CGRP potency (CGRP): 0.00012 µM

Source: PMC8006142 (Journal of Medicinal Chemistry, 2021)
